Test results: PubChem BioAssay AID2060492 (Molecular Pharmacology Branch, DTP, NCI, 2025)
Where “and” joins values, the source holds several entries; their conditions need not be identical. Identical values can stand only once. One block for each compound: values may come before it.

System: 695427-040-R-J1-PDC complex spheroids, viability percent T/C
Assay: Anticancer human tumor 695427-040-R-J1-PDC patient-derived colon adenocarcinoma cell line growth inhibition [GQUAD]
Conditions: for viability, T/C: stronger effect = lower value
From the text: DNA G-quadruplex Stabilizer Agents in Combinations in Complex Spheroids
A high-throughput screen of multi-cell type tumor spheroids was designed to identify active combinations of DNA G-quadruplex stabilizer agents and targeted small molecules. Complex spheroids include a stromal component modeled by human endothelial cells (HUVEC) and fibroblasts modeled by human mesenchymal stem cells (MSCs). The concentration ranges selected for each drug and investigational agent were based upon clinically achievable concentrations if the clinical Cmax of the agent was known.
Compounds. The drugs and investigational agents: pidnarulex (CX-5461; NSC782164), APTO-253 (NSC789042), BRACO-19 (NSC847499), peposertib (NSC802822), ceralasertib (NSC780249), elimusertib (NSC800525), camonsertib (NSC841442), AZD-1390 (NSC803789), olaparib (NSC753686), talazoparib (NSC767125), ART-558 (NSC835418), sotorasib (NSC818433), MRTX-1133 (NSC836407), SN-38 (NSC673596), topotecan (NSC609699), etoposide (NSC141540), doxorubicin (NSC123127), gemcitabine (NSC613327), 5-fluorouracil (NSC19893), paclitaxel (NSC125973), vemurafenib (NSC761431), panobinostat (NSC761190), R-306465 (JNJ-16241199; NSC773264), adavosertib (NSC754352), TP-3654 (NSC805149), carboplatin (NSC241240), KSQ-4279 (NSC840948), and staurosporine (NSC755774) were obtained from the National Cancer Institute (NCI) Developmental Therapeutics Program Chemical Repository (34). The FDA-approved anticancer drug set is available from the NCI Developmental Therapeutics Program. […] The stock solutions were prepared in dimethyl sulfoxide (DMSO, Sigma-Aldrich, St. Louis, MO, cat. D2650) at 800-fold the tested concentration and stored at -70 degrees C prior to their use. All drugs and investigational agents were tested over a range starting from a high concentration at or near the clinical Cmax and decreasing in half-log increments. If the clinical Cmax for an agent had not been determined, the highest concentration tested was 10 microM.
2.3 Cell Culture. All cells were maintained in an incubator at 37 degrees C and 5% CO2 with 95% humidity. The PDC lines were cultured according to standard operating procedures established by the NCI PDMR. All PDCs were thawed and cultured in Matrigel-coated flasks prepared with a working solution of 1X Ham's F-12 nutrient mix, without supplementation (Invitrogen, cat. 11765054), 100 U/mL penicillin-streptomycin (Invitrogen, cat. 15140122), and 2.5% Matrigel (Corning Inc., cat. 354248) for the first three passages. The 857933-349-R-J2-PDC line was cultured in 6C/Colon 1B media, which includes advanced DMEM/F-12 (Thermo Fisher Scientific, cat. 12634028), 10 mM HEPES (Thermo Fisher Scientific, cat. 15630080), 1X GlutaMAX supplement (Thermo Fisher Scientific, cat. 35050061), 0.1 mg/mL primocin (InvivoGen, cat. ant-pm-2), 10% defined fetal bovine serum, heat inactivated (HyClone Laboratories Inc., cat. SH30070.03HI), 50% L-WRN conditioned media (ATCC, cat. CRL-3276), 1.25 mM N-Acetyl-L-cysteine (Sigma-Aldrich, cat. A9165), 10 mM nicotinamide (Sigma-Aldrich, cat. N0636), 1X B-27 supplement (Thermo Fisher Scientific, cat. 17504044), 1X N-2 supplement (Thermo Fisher Scientific, cat. 17502048), 10 microM Y-27632 dihydrochloride (Tocris Bioscience, cat. 1254), and 50 ng/mL human EGF recombinant protein (Thermo Fisher Scientific, cat. PHG0311). The 485176-168-R4-J1-PDC line was cultured in Panc media, which includes all 6C/Colon 1B media components plus 100 ng/mL human FGF-10 (Thermo Fisher Scientific, cat. 100-26), 500 nM SB-431542 (Selleckchem, cat. S1067), and gastrin (Tocris, cat. 3006).
[…]
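Note: spheroids exposed to compounds for seven days before readout.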

- IC50 (curve of compound): > 10 µM
SMILES: COc1cc(C2c3cc4c(cc3C(OC3OC5COC(C)OC5C(O)C3O)C3COC(=O)C23)OCO4)cc(OC)c1O (stereo unspecified)
- viability, T/C (compound 0.0316 µM): 96.9% and 98.6% and 100%
- viability, T/C (compound 0.1 µM): 90.3% and 81.4% and 90%
- viability, T/C (compound 0.316 µM): 110% and 86.1% and 104%
- viability, T/C (compound 1 µM): 97.4% and 90% and 94.7%
- viability, T/C (compound 3.16 µM): 95.6% and 68.2% and 90.1%
- viability, T/C (compound 10 µM): 77.5% and 61.8% and 75.3%

- IC50 (curve of compound): 8.21 µM and 8.19 µM and 5.94 µM
SMILES: COc1cccc2c1C(=O)c1c(O)c3c(c(O)c1C2=O)CC(O)(C(=O)CO)CC3OC1CC(N)C(O)C(C)O1 (stereo unspecified)
- viability, T/C (compound 0.0316 µM): 108% and 100% and 89.9%
- viability, T/C (compound 0.1 µM): 88.7% and 92.9% and 92.4%
- viability, T/C (compound 0.316 µM): 90.9% and 94.7% and 84.1%
- viability, T/C (compound 1 µM): 90.9% and 89.8% and 68.8%
- viability, T/C (compound 3.16 µM): 74.8% and 60.3% and 59%
- viability, T/C (compound 10 µM): 44.5% and 47.9% and 43.7%

- IC50 (compound alone, run of 04/16/2024): > 10 µM
- IC50 (compound alone, run of 04/22/2024): > 10 µM
SMILES: Cc1[nH]c2ccc(F)cc2c1-c1nc2c3cccnc3c3ncccc3c2[nH]1
- viability, T/C (compound 0.1 µM): 103% [middle of 12 runs]
- viability, T/C (compound 0.316 µM): 102% [middle of 12 runs]
- viability, T/C (compound 1 µM): 97% [middle of 12 runs]
- viability, T/C (compound 3.16 µM): 87.2% [middle of 12 runs]
- viability, T/C (compound 10 µM): 80.3% [middle of 12 runs]

- IC50 (curve of compound): > 10 µM
SMILES: Cc1cccc(N(C)C(=O)C2C(O)CCN2c2nc(C)cc(C(F)(F)F)c2C#N)c1 (stereo unspecified)
- viability, T/C (compound 0.0316 µM): 109% and 104% and 116%
- viability, T/C (compound 0.1 µM): 90.7% and 90.4% and 93.4%
- viability, T/C (compound 0.316 µM): 88.3% and 106% and 102%
- viability, T/C (compound 1 µM): 101% and 94.8% and 87.2%
- viability, T/C (compound 3.16 µM): 85.2% and 105% and 78.1%
- viability, T/C (compound 10 µM): 87.4% and 90.2% and 74.4%

- IC50 (curve of compound): > 10 µM and 4.78 µM
SMILES: Nc1ccn(C2OC(CO)C(O)C2(F)F)c(=O)n1 (stereo unspecified)
- viability, T/C (compound 0.0316 µM): 81.8% and 90.5% and 89.3%
- viability, T/C (compound 0.1 µM): 77.1% and 75.9% and 76.4%
- viability, T/C (compound 0.316 µM): 72.5% and 81.7% and 66.8%
- viability, T/C (compound 1 µM): 64.7% and 73.6% and 62.1%
- viability, T/C (compound 3.16 µM): 51.1% and 69.9% and 47%
- viability, T/C (compound 10 µM): 54.9% and 64.9% and 48.6%

- IC50 (curve of compound): > 10 µM
SMILES: O=C(c1cc(Cc2n[nH]c(=O)c3ccccc23)ccc1F)N1CCN(C(=O)C2CC2)CC1
- viability, T/C (compound 0.0316 µM): 84.8% and 115% and 98.4%
- viability, T/C (compound 0.1 µM): 94.2% and 98.6% and 103%
- viability, T/C (compound 0.316 µM): 93.2% and 99.7% and 95.8%
- viability, T/C (compound 1 µM): 99.4% and 97.6% and 92.7%
- viability, T/C (compound 3.16 µM): 72.7% and 105% and 88.9%
- viability, T/C (compound 10 µM): 88% and 93.6% and 77.6%

Further lines, the compound ahead of its results:

SMILES: COc1ccc([C@@H](O)c2cc(-c3ncnc4cc(N5CCOCC5)ccc34)c(F)cc2Cl)nn1
- viability, T/C (compound 0.0316 µM): 91.1% and 96.7% and 94.1%
- viability, T/C (compound 0.1 µM): 79.7% and 91.7% and 86.8%
- viability, T/C (compound 0.316 µM): 101% and 91.6% and 95.4%
- viability, T/C (compound 1 µM): 70.5% and 92% and 82.2%
- viability, T/C (compound 3.16 µM): 69% and 67.2% and 61%
- viability, T/C (compound 10 µM): 50.5% and 51% and 46%
- IC50 (curve of compound): > 10 µM and 7.33 µM

SMILES: COc1ncnc(C2CC2)c1-c1ncc2cnn(Cc3ccc(-c4nc(C(F)(F)F)cn4C(C)C)cc3)c2n1
- viability, T/C (compound 0.0316 µM): 86.9% and 97.4% and 103%
- viability, T/C (compound 0.1 µM): 92.5% and 96.3% and 95.5%
- viability, T/C (compound 0.316 µM): 93.3% and 102% and 94.6%
- viability, T/C (compound 1 µM): 81.1% and 99.2% and 93%
- viability, T/C (compound 3.16 µM): 71.3% and 107% and 93.5%
- viability, T/C (compound 10 µM): 82% and 78% and 98%
- IC50 (curve of compound): > 10 µM

SMILES: Cc1[nH]c2ccccc2c1CCNCc1ccc(/C=C/C(=O)NO)cc1
- viability, T/C (compound 0.000999 µM): 98.8% and 112% and 98%
- viability, T/C (compound 0.00316 µM): 103% and 100% and 96.8%
- viability, T/C (compound 0.00999 µM): 98.5% and 103% and 99.5%
- viability, T/C (compound 0.0316 µM): 98.7% and 110% and 101%
- viability, T/C (compound 0.0999 µM): 96.6% and 93.8% and 94.2%
- viability, T/C (compound 0.316 µM): 89.6% and 68% and 71.7%
- IC50 (curve of compound): > 0.316 µM

SMILES: Cc1cnc(CNC(=O)c2c(=O)c3ccc(N4CCCN(C)CC4)nc3n3c2sc2ccccc23)cn1
- viability, T/C (compound 0.0316 µM): 95.8% [middle of 12 runs]
- viability, T/C (compound 0.1 µM): 91.6% [middle of 12 runs]
- viability, T/C (compound 0.316 µM): 85.3% [middle of 12 runs]
- viability, T/C (compound 1 µM): 76.2% [middle of 12 runs]
- viability, T/C (compound 3.16 µM): 58% [middle of 12 runs]
- viability, T/C (compound 10 µM): 44.7% [middle of 12 runs]

SMILES: Cn1ncnc1[C@H]1c2n[nH]c(=O)c3cc(F)cc(c23)N[C@@H]1c1ccc(F)cc1
- viability, T/C (compound 0.000999 µM): 93.3% and 88.5% and 90.8%
- viability, T/C (compound 0.00316 µM): 80.2% and 90.7% and 85.4%
- viability, T/C (compound 0.00999 µM): 88.3% and 95.7% and 109%
- viability, T/C (compound 0.0316 µM): 108% and 98.7% and 87.9%
- viability, T/C (compound 0.0999 µM): 99.3% and 102% and 82.7%
- viability, T/C (compound 0.316 µM): 69.6% and 93.1% and 74.3%
- IC50 (curve of compound): > 0.316 µM

SMILES: O=C(NO)c1cnc(N2CCN(S(=O)(=O)c3ccc4ccccc4c3)CC2)nc1
- viability, T/C (compound 0.0316 µM): 99.2% and 107% and 96.1%
- viability, T/C (compound 0.1 µM): 97.4% and 90.7% and 87.3%
- viability, T/C (compound 0.316 µM): 98% and 73.8% and 71.3%

SMILES: O=c1[nH]cc(F)c(=O)[nH]1
- viability, T/C (compound 0.0316 µM): 95.9% and 105% and 110%
- viability, T/C (compound 0.1 µM): 85.8% and 99.6% and 96.4%
- viability, T/C (compound 0.316 µM): 86% and 106% and 100%
- viability, T/C (compound 1 µM): 97.5% and 100% and 88.9%
- viability, T/C (compound 3.16 µM): 80.1% and 63.3% and 102%
- viability, T/C (compound 10 µM): 86.5% and 98.3% and 92%
- IC50 (curve of compound): > 10 µM
